The series in a line: QUV accelerated weathering exposure test of painted aluminum panels (colour fading, CIE La*b*). The series is classed as physicochemical. Particulars: Study I, 48 weeks; 6 hr UV/6 hr condensation cycles; mildewcide level 2.0 (% as is); phthalocyanine blue acrylic paint. The protocol: An exposure test was conducted in two studies to determine the effect of weathering (UV exposure and/or condensation) on samples of panels with paints containing chlorothalonil, tetraconazole, and chlorothalonil/tetraconazole blend additives, respectively. The panels were aluminum having a 3003 alloy mill finish. One coating (6 mils thick when wet) of the selected paint was applied to each panel and allowed to air dry for 7 days at ambient temperature. Simulated weathering was performed by exposure of the panels to a QUV accelerated weathering tester providing UVA radiation at a power consumption of 1200 Watts (110 volts, 60 Hz). The exposure was conducted in alternating and repeating 6-hour cycles, one 6-hour cycle being an ultraviolet radiation exposure cycle (conducted at 80° C.), and the other cycle being a condensation cycle wherein the panels are exposed to moisture (conducted at 60°). The results are set forth below in Table I. CIE La*b* System describes a color space wherein ‘a’ is the green(−)/[…] axis. ‘L’ is lightness; ‘C’ is chroma or saturation.

The source of these data is patent US6409809B1 (priority 1999, dated 2002).

As for `FC(F)C(F)(F)OCC(Cn1cncn1)c1ccc(Cl)cc1Cl` (centres unmarked) [TCZ, Tetraconazole], the “DC vs. Blank” value was 1.02 and the “DL vs. Blank” value is listed as −2.20.
